Assay results taken from US10328077B2 (CELGENE CORPORATION, priority 2016, dated 2019).
Like-named read-outs stand apart in the source and are kept apart here.

Columns and labels:
MKL-1 hMCC xenograft = assay type: in vivo; details: 5 mg/kg PO 5 on/2 off
hERG potassium channel = hERG potassium channel (Homo sapiens (Human), UniProt Q12809); experiment: in vitro; details: HEK293 cells stably expressing hERG channels
[1] = Pharmacokinetics after IV and oral dose, mice; assay type: in vivo, CD-1 mice; details: mouse
[2] = 4-week oral gavage pivotal toxicity study with 4-week recovery in dogs (incl. ECG, TK); assay type: in vivo, Beagle dogs; details: for AUC(0-t): Beagle, po, AUC0-168
Experimental: The QTc interval was calculated using the Fridericia method.

LXFS 1129 SCLC PDX model = experiment: LXFS 1129 SCLC PDX model; design: species or system mice; details: female, NMRI-Foxnlnu, mouse, in vivo, oral, read-out: AUC0-24
[3] = test system: LXFS 1129 SCLC patient-derived xenograft; experiment: LXFS 1129 SCLC PDX model; design: species or system mice; details: mouse, in vivo
[4] = test system: gene expression in MKL-1 and MS-1 hMCC cell lines; experiment: RNA-seq modulation of gene expression in cultured hMCC cells; assay type: cell-based, human; details: 10 and 100 nM
Experimental: The modulation of gene expression by Compund A for a panel of human genes was determined by culturing MKL-1 or MS-1 cells (Sigma-Aldrich, St. Louis, Mo.) for three days in the presence of 0, 10, or 100 nM Compund A and extracting total RNA for assessment by RNA-seq.
Libraries were sequenced on an Illumina NextSeq® 500 System (Illumina, San Diego, Calif.) using 75 base paired-end RNA sequencing. Sequenced reads were mapped to the hg19 human genome build and differential expression was determined by analysis of variance across all replicates relative to the vehicle control.
Sequenced reads were mapped to the hg19 human genome build using the Spliced Transcripts Alignment to a Reference (STAR) software tool (©Alexander Dobin, 2009-2016) and transcript counts were normalized using the Empirical Analysis of Digital Gene Expression Data in R (edgeR) and Differential gene expression analysis based on the negative binomial distribution (DESeq2) software tools (©Bioconductor, 2003-2017). Differential expression was determined by analysis of variance across all replicates relative to the vehicle control.

[5] = Beagle, dog, in vivo, po
[6] = Exploratory toxicity study in mice; assay type: in vivo, CD-1 mice; details: for reduction in neutrophil counts: 60 mg/kg/dose QOD
Text: Additional animals were included for TK evaluation.

[7] = CD-1, plasma, female, single IV dose 5 mg
[8] = CD-1, plasma, female, single oral dose 10 mg base/kg

hERG potassium channel, sequence (Q12809 whole entry): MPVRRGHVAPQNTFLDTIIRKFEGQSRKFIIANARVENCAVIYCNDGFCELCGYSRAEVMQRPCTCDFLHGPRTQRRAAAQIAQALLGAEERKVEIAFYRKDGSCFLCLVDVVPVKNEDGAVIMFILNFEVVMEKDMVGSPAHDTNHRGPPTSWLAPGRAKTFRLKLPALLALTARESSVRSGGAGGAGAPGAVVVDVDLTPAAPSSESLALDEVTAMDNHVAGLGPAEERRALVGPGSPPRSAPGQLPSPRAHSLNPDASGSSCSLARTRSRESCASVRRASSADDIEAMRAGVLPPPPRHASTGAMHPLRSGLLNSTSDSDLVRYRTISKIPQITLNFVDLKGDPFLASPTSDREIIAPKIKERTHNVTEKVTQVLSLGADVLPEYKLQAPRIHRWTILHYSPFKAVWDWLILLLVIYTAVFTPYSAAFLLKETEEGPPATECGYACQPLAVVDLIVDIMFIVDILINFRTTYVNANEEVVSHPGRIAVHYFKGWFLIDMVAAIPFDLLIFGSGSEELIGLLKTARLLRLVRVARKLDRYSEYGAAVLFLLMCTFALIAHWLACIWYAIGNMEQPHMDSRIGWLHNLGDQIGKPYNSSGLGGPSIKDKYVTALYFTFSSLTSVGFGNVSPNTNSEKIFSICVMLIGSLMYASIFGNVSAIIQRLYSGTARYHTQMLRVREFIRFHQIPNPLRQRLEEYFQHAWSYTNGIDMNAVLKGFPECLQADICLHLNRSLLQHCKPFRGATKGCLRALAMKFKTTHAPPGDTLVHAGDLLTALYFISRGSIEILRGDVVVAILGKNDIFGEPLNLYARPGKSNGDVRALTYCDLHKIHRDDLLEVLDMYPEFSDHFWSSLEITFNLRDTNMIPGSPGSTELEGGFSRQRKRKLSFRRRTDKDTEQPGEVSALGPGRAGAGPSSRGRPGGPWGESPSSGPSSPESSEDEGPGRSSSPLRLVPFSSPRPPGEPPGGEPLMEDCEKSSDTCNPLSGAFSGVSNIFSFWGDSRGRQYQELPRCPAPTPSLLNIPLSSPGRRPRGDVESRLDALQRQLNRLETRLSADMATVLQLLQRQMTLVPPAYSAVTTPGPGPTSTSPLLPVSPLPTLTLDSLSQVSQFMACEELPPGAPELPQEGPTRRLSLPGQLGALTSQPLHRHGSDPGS

SMILES: COc1ccc(-c2c(-c3ccc(C#N)c(F)c3)nc(N3CCC(N)CC3)n(C)c2=O)cc1F [Compound A, 4-[2-(4-amino-piperidin-1-yl)-5-(3-fluoro-4-methoxy-phenyl)-1-methyl-6-oxo-1,6-dihydro-pyrimidin-4-yl]-2-fluoro-benzonitrile]
- Median Tumor Volume Day 15 (MKL-1 hMCC xenograft): 880 mm^3
- Median Tumor Volume Diff (Day 15 - Day -3) (MKL-1 hMCC xenograft): 815 mm^3
- inhibition at 0.3 µM (hERG potassium channel): 5.9 ± 1.3%
- inhibition at 1 µM (hERG potassium channel): 17.8 ± 0.3%
- inhibition at 3 µM (hERG potassium channel): 47 ± 1.9%
- inhibition at 10 µM (hERG potassium channel): 77.3 ± 0.2%
- half-life ([1]; CD-1 (mice), Sprague Dawley (rats), plasma, IV, rodents (mice, rats), read-out: half-life): 2 to 4 h
- Tmax ([1]; CD-1, Sprague Dawley, Beagle, plasma, oral, across mice, rats, dogs, monkeys, read-out: median tmax): 0.5 to 6 h
- bioavailability ([1]; CD-1, Sprague Dawley, plasma, po, rodents, read-out: oral bioavailability): 28 to 74%
- AUC(0-inf) [1, 7]: 2660 ng·h/mL
- AUC(0-t) [1, 7]: 2220 ng·h/mL
- clearance [1, 7]: 32 mL/min/kg
- Vd ([1]; CD-1, plasma, female, single IV dose 5 mg, read-out: Vss): 7.51 L/kg
- half-life ([1]; CD-1, plasma, female, single IV dose 5 mg, read-out: t1/2, z (converted)): 3.8 h
- AUC(0-t) [1, 8]: 2010 ng·h/mL
- Cmax [1, 8]: 510 ng/mL
- bioavailability ([1]; CD-1, plasma, female, single oral dose 10 mg base/kg, read-out: % F): 38%
- half-life ([1]; CD-1, plasma, female, single oral dose 10 mg base/kg, read-out: t1/2, z (converted)): 1.7 h
- Tmax ([1]; CD-1, plasma, female, single oral dose 10 mg base/kg, read-out: tmax): 0.5 h
- NOEL for CV and respiratory changes ([2]; BIW oral): 0.375 mg base/kg/dose
- HNSTD and NOAEL ([2]; QW or BIW dose schedule): < 0.375 mg base/kg/dose
- NOEL for CV and respiratory changes ([2]; QW oral): 0.75 mg base/kg/dose
- reversibility of findings ([2]; dog, in vivo): complete recovery
- AUC(0-t) ([2]; female, dog, in vivo): 435 ng·h/mL
- AUC(0-t) ([2]; male, dog, in vivo): 503 ng·h/mL
- moribund euthanasia ([2]; weekly oral 0.375 to 1.5 mg base/kg, Days 13 to 23): 11 animals
- primary toxicities ([2]; ≥0.375 mg base/kg/dose, QW or BIW): mucosal ulceration, acute and/or subacute inflammation, and mucosal epithelial atrophy of GI tract tissues
- AUC(0-t) (LXFS 1129 SCLC PDX model; 1.5 mg base/kg): 243 ng·h/mL
- AUC(0-t) (LXFS 1129 SCLC PDX model; 5 mg base/kg): 1260 ng·h/mL
- mean body weight loss [3]: < 6%
- downregulated genes with expression changes in both hMCC lines at both concentrations (of 4303) ([4]; 3 days, MKL-1 and MS-1): 17
- upregulated genes with expression changes in both hMCC lines at both concentrations (of 3803) ([4]; 3 days, MKL-1 and MS-1): 172
- ST18 and FREM2 gene expression change (upregulated) ([4]; both hMCC lines): at least 2 fold
- AUC0-96 ([5]; female): 127 ng·h/mL
- Cmax ([5]; female): 5.77 ng/mL
- AUC0-96 ([5]; female, 0.25 mg/kg): 272 ng·h/mL
- Cmax ([5]; female, 0.25 mg/kg): 11.5 ng/mL
- AUC0-96 ([5]; female, 0.5 mg/kg): 618 ng·h/mL
- AUC0-96 ([5]; male): 114 ng·h/mL
- Cmax ([5]; male): 5.81 ng/mL
- AUC0-96 ([5]; male, 0.25 mg/kg): 302 ng·h/mL
- Cmax ([5]; male, 0.25 mg/kg): 10.5 ng/mL
- AUC0-96 ([5]; male, 0.5 mg/kg): 653 ng·h/mL
- increase in platelets on Day 8 ([6]; 10 mg/kg/day 5 days on/2 days off, vs end of first dosing period): > 2 fold
- reduction in neutrophil counts ([6]; females): 66%
- reduction in neutrophil counts ([6]; males): 83%
- increased spleen weights ([6]; 30 or 60 mg/kg/dose 5 days on/2 days off): up to 2 fold
- greatest reduction in neutrophil counts ([6]; 5 days on/2 days off schedule, vs concurrent controls and pre-study values): approximately 90%
- circulating platelets ([6]; all dose levels, end of study): reduced
